# Experimental data from US7138361B2, “Herbicidal heterocycles” (E. I. du Pont de Nemours and Company, priority 2000, dated 2006).
# Tests used:
# Type in all cases: in vivo
# [1] = tested on: barnyardgrass (Echinochloa crus-galli); test: Test C flooded paddy test; conditions: for Barnyardgrass plant response rating: Flooded Paddy, scale 0 to 100, 0 no effect, 100 complete control; for Plant response rating, Barnyardgrass: flooded paddy test, scale 0 to 100 (0 no effect, 100 complete control)
# Outline: (§1)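 Each species was cultivated to 2 leaves in flooded paddy pots, then treated. After a greenhouse period of 12–14 days, the plants were scored visually relative to controls from 0 (no effect) to 100 (complete control).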
# [2] = tested on: smallflower flatsedge (Cyperus difformis); test: Test C flooded paddy test; conditions: for Flatsedge plant response rating: Flooded Paddy, scale 0 to 100, 0 no effect, 100 complete control; for Plant response rating, Flatsedge: flooded paddy test, scale 0 to 100 (0 no effect, 100 complete control)
# Outline: as §1
# [3] = tested on: duck salad (Heteranthera limosa); test: Test C flooded paddy test; conditions: for Ducksalad plant response rating: Flooded Paddy, scale 0 to 100, 0 no effect, 100 complete control; for Plant response rating, Ducksalad: flooded paddy test, scale 0 to 100 (0 no effect, 100 complete control)
# Outline: as §1
# rice (Oryza saliva) [4] = test: Test C flooded paddy test; conditions: for Rice plant response rating: Flooded Paddy, scale 0 to 100, 0 no effect, 100 complete control; for Plant response rating, Rice: flooded paddy test, scale 0 to 100 (0 no effect, 100 complete control)
# Outline: as §1
# corn (Zea mays) [5] = test: Test B preemergence; conditions: preemergence
# Outline: (§2)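 Preemergence: seeds planted and treated with test chemicals in non-phytotoxic solvent with surfactant; postemergence on plants 2–18 cm (1- to 4-leaf stage). Kept in greenhouse 13–15 days, then visually rated against controls on a 0 (no effect) to 100 (complete control) scale.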
# [6] = tested on: velvetleaf (Abutilon theophrasti); test: Test B preemergence; conditions: preemergence
# Outline: as §2
# [7] = tested on: cocklebur (Xanthium strumarium); test: Test B preemergence; conditions: preemergence
# Outline: as §2
# [8] = tested on: crabgrass (Digitaria sanguinalis); test: Test B preemergence; conditions: preemergence
# Outline: as §2
# [9] = tested on: Surinam grass (Brachiaria decumbens); test: Test B preemergence; conditions: preemergence
# Outline: as §2
# [10] = tested on: lambsquarters (Chenopodium album); test: Test B preemergence; conditions: preemergence
# Outline: as §2
# [11] = tested on: barnyardgrass (Echinochloa crus-galli); test: Test B preemergence; conditions: preemergence
# Outline: as §2
# [12] = tested on: pigweed (Amaranthus retroflexus); test: Test B preemergence; conditions: preemergence
# Outline: as §2
# [13] = tested on: giant foxtail (Setaria faberii); test: Test B preemergence; conditions: preemergence
# Outline: as §2
# rice (Oryza saliva) [14] = test: Test B preemergence; conditions: preemergence
# Outline: as §2
# [15] = tested on: morning glory (Ipomoea hederacea); test: Test B preemergence; conditions: preemergence
# Outline: as §2
# corn (Zea mays) [16] = test: Test B postemergence
# Outline: as §2
# wild oat (Avena fatua) = test: Test B postemergence
# Outline: as §2
# [17] = tested on: velvetleaf (Abutilon theophrasti); test: Test B postemergence
# Outline: as §2
# [18] = tested on: cocklebur (Xanthium strumarium); test: Test B postemergence
# Outline: as §2
# [19] = tested on: crabgrass (Digitaria sanguinalis); test: Test B postemergence
# Outline: as §2
# [20] = tested on: Surinam grass (Brachiaria decumbens); test: Test B postemergence
# Outline: as §2
# [21] = tested on: blackgrass (Alopecurus myosuroides); test: Test B postemergence
# Outline: as §2
# [22] = tested on: lambsquarters (Chenopodium album); test: Test B postemergence
# Outline: as §2
# [23] = tested on: barnyardgrass (Echinochloa crus-galli); test: Test B postemergence
# Outline: as §2
# [24] = tested on: wheat (Triticum aestivum); test: Test B postemergence
# Outline: as §2
# [25] = tested on: pigweed (Amaranthus retroflexus); test: Test B postemergence
# Outline: as §2
# [26] = tested on: giant foxtail (Setaria faberii); test: Test B postemergence
# Outline: as §2
# [27] = tested on: morning glory (Ipomoea hederacea); test: Test B postemergence
# Outline: as §2
# [28] = Rate 62 g/ha, scale of 0 to 100 where 0 is no effect and 100 is complete control, 13 to 15 days
# [29] = Rate 250 g/ha, scale 0 to 100, 0 no effect, 100 complete control
# [30] = Rate 62 g/ha, scale 0 to 100, 0 no effect, 100 complete control
# [31] = Rate 250 g/ha, scale 0 (no effect) to 100 (complete control), 13 to 15 days
smiles,measurement,setting,value
CCOc1cccc(N2CCC(n3ccc(C(CC)CC)n3)C2=O)c1 (stereo not shown) [Compound 125],Barnyardgrass plant response rating,[1]; Rate 250 g/ha,100
same,Barnyardgrass plant response rating,[1]; Rate 500 g/ha,100
same,"Plant response rating, Barnyardgrass",[1]; Rate 62 g/ha,65
same,"Plant response rating, Barnyardgrass",[1]; Rate 125 g/ha,100
same,Flatsedge plant response rating,[2]; Rate 250 g/ha,100
same,Flatsedge plant response rating,[2]; Rate 500 g/ha,100
same,"Plant response rating, Flatsedge",[2]; Rate 62 g/ha,100
same,"Plant response rating, Flatsedge",[2]; Rate 125 g/ha,100
same,Ducksalad plant response rating,[3]; Rate 250 g/ha,100
same,Ducksalad plant response rating,[3]; Rate 500 g/ha,100
same,"Plant response rating, Ducksalad",[3]; Rate 62 g/ha,40
same,"Plant response rating, Ducksalad",[3]; Rate 125 g/ha,95
same,Rice plant response rating,rice (Oryza saliva) [4]; Rate 250 g/ha,40
same,Rice plant response rating,rice (Oryza saliva) [4]; Rate 500 g/ha,60
same,"Plant response rating, Rice",rice (Oryza saliva) [4]; Rate 62 g/ha,0
same,"Plant response rating, Rice",rice (Oryza saliva) [4]; Rate 125 g/ha,10
same,"Plant response rating, Corn",corn (Zea mays) [5]; [28],20
same,"Plant response rating, Corn",corn (Zea mays) [5]; [29],40
same,"Plant response rating, Velvetleaf",[6]; [28],0
same,"Plant response rating, Velvetleaf",[6]; [29],40
same,"Plant response rating, Cocklebur",[7]; [28],0
same,"Plant response rating, Cocklebur",[7]; [29],50
same,"Plant response rating, Crabgrass",[8]; [28],100
same,"Plant response rating, Crabgrass",[8]; [29],100
same,"Plant response rating, Surinam grass",[9]; [28],70
same,"Plant response rating, Surinam grass",[9]; [29],100
same,"Plant response rating, Lambsquarters",[10]; [28],100
same,"Plant response rating, Lambsquarters",[10]; [29],100
same,"Plant response rating, Barnyardgrass",[11]; [28],100
same,"Plant response rating, Barnyardgrass",[11]; [29],100
same,"Plant response rating, Pigweed",[12]; [28],100
same,"Plant response rating, Pigweed",[12]; [29],100
same,"Plant response rating, Foxtail, Giant",[13]; [28],100
same,"Plant response rating, Foxtail, Giant",[13]; [29],100
same,"Plant response rating, Rice",rice (Oryza saliva) [14]; [28],50
same,"Plant response rating, Rice",rice (Oryza saliva) [14]; [29],100
same,"Plant response rating, Morningglory",[15]; [28],50
same,"Plant response rating, Morningglory",[15]; [29],80
same,"Plant response rating, Corn",corn (Zea mays) [16]; [30],0
same,"Plant response rating, Corn",corn (Zea mays) [16]; [31],0
same,"Plant response rating, Wild Oat",wild oat (Avena fatua); [30],0
same,"Plant response rating, Wild Oat",wild oat (Avena fatua); [31],0
same,"Plant response rating, Velvetleaf",[17]; [30],0
same,"Plant response rating, Velvetleaf",[17]; [31],0
same,"Plant response rating, Cocklebur",[18]; [30],30
same,"Plant response rating, Cocklebur",[18]; [31],70
same,"Plant response rating, Crabgrass",[19]; [30],0
same,"Plant response rating, Crabgrass",[19]; [31],0
same,"Plant response rating, Surinam grass",[20]; [30],0
same,"Plant response rating, Surinam grass",[20]; [31],0
same,"Plant response rating, Blackgrass",[21]; [30],0
same,"Plant response rating, Blackgrass",[21]; [31],0
same,"Plant response rating, Lambsquarters",[22]; [30],100
same,"Plant response rating, Lambsquarters",[22]; [31],100
same,"Plant response rating, Barnyardgrass",[23]; [30],0
same,"Plant response rating, Barnyardgrass",[23]; [31],80
same,"Plant response rating, Wheat",[24]; [30],0
same,"Plant response rating, Wheat",[24]; [31],0
same,"Plant response rating, Pigweed",[25]; [30],30
same,"Plant response rating, Pigweed",[25]; [31],70
same,"Plant response rating, Foxtail, Giant",[26]; [30],0
same,"Plant response rating, Foxtail, Giant",[26]; [31],0
same,"Plant response rating, Morningglory",[27]; [30],50
same,"Plant response rating, Morningglory",[27]; [31],100
